Reference: patent US6677316B2, “Adenosine derivatives and methods of administration” (SmithKline Beecham Corporation, priority 1998, dated 2004)

Key:
[1] = target: T1, human adenosine A1 receptor (Homo sapiens, UniProt P30542); assay: Reporter gene assay (CRE/SPAP) in CHO cells, agonist potency relative to NECA, adenosine A1 receptor; assay type: cell-based; design: key: equipotent concentration ratio, NECA = 1; conditions: ECR = equipotent concentration ratio relative to NECA = 1, inhibition of forskolin-stimulated SPAP production
T1 construct: expressed in transfected cells; host or cells: Chinese hamster ovary (CHO) cells with CRE/SPAP/HYG reporter elements
T1 sequence (P30542 1-326): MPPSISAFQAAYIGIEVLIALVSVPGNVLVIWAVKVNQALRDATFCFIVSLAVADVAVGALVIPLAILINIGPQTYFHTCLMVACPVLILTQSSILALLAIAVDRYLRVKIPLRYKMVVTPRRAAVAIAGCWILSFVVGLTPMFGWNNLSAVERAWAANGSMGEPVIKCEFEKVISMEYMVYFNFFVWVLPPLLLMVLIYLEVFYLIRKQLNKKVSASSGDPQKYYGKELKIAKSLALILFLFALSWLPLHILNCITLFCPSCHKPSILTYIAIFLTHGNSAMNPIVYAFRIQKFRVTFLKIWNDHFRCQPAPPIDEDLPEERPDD
Experimental: (§1) Reporter Gene Experiments
(§2) Agonist activity was measured in Chinese hamster ovary (CHO) cells containing the CRE/SPAP/HYG (CRE=cyclic AMP response element; HYG=hygromycin resistance; SPAP=secreted placental alkaline phosphatase) reporter gene elements, which upon stimulation of cAMP levels produced SPAP. A cell line was used, which was stably transfected with either the human adenosine A1 receptor or the human adenosine A3 receptor in addition to the above elements. Cells were plated out in 96-well plates in culture medium and incubated at 37° C. for 1 hour. For measurement of potency, agonists were added to the appropriate wells at a concentration range of approximately 10^−10- 10^−5M. 15Min later, cAMP levels were stimulated by addition of a maximal concentration of forskolin. All cells were then incubated for a further 5 hours at 37° C., and cooled to room temperature, after which a substrate for the phosphatase (para-nitrophenol phosphate, pNPP), which is converted by SPAP to a coloured reagent) was then added and the 96-well -plates were read in a plate reader. From these readings, the concentration-dependence of the inhibition by the agonist for forskolin-stimulated SPAP production can be calculated. One of the agonists tested on each 96-well plate was the standard non-selective agonist, N-ethylcarboxamidoadenosine (NECA), and the potency of all test agonists is expressed relative to that of the NECA standard.
(§3) (ECR=equipotent concentration ratio relative to NECA=1)

[2] = target: T2, human adenosine A3 receptor (Homo sapiens, UniProt P0DMS8); assay: Reporter gene assay (CRE/SPAP) in CHO cells, agonist potency relative to NECA, adenosine A3 receptor; assay type: cell-based; design: key: equipotent concentration ratio, NECA = 1; conditions: ECR = equipotent concentration ratio relative to NECA = 1, inhibition of forskolin-stimulated SPAP production
T2 construct: expressed in transfected cells; host or cells: Chinese hamster ovary (CHO) cells with CRE/SPAP/HYG reporter elements
T2 sequence (P0DMS8 1-318): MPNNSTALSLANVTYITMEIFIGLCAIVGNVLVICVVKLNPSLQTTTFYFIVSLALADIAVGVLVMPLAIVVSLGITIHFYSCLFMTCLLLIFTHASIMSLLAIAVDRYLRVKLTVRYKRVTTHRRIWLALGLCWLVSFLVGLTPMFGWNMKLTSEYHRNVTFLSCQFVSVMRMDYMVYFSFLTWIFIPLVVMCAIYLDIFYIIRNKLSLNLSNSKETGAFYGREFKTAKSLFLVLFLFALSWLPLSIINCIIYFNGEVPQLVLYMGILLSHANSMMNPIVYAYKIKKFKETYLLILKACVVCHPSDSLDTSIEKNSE
Experimental: as §1, §2, §3

Adenosine A1 receptor ECR* [1] | Adenosine A3 receptor ECR* [2] | Structure (SMILES)
5.8 | 1066.71 | CC(C)(C)c1nnc([C@H]2O[C@@H](n3cnc4c(Nc5ccc(Cl)cc5F)ncnc43)[C@H](O)[C@@H]2O)o1 [Example 14, (2S,3S,4R,5R)-2-(5-tert-Butyl-[1,3,4]oxadiazol-2-yl)-5-[6-(4-chloro-2-fluoro-phenylamino)-purin-9-yl]-tetrahydro-furan-3,4-diol]
23.26 | 321 | CC(C)(C)c1noc([C@H]2O[C@@H](n3cnc4c(N[C@H]5CCC[C@@H]5O)ncnc43)[C@H](O)[C@@H]2O)n1 [Example 21, (2S,3S,4R,5R)-2-(3-tert-Butyl-[1,2,4]oxadiazol-5-yl)-5-[6-(2S-hydroxy-cyclopent-(S)-ylamino)-purin-9-yl]-tetrahydro-furan-3,4-diol]
0.42 | 44.7 | CC(C)(C)c1cc([C@H]2O[C@@H](n3cnc4c(NC5CCOCC5)ncnc43)[C@H](O)[C@@H]2O)on1 [Example 28, (2S,3S,4R,5R)-2-(3-tert-Butyl-isoxazol-5-yl)-5-[6-(tetrahydro-pyran-4-ylamino)-purin-9-yl]-tetrahydro-furan-3,4-diol]
0.48 | – | CCc1cc([C@H]2O[C@@H](n3cnc4c(NC5CCOCC5)ncnc43)[C@H](O)[C@@H]2O)on1 [Example 135, (2S,3S,4R,5R)-2-(3-ethylisoxazol-5-yl)-5-[6-(tetrahydro-2H-pyran-4-ylamino)-9H-purin-9-yl]tetrahydrofuran-3,4-diol]
1.95 | – | CCc1cc([C@H]2O[C@@H](n3cnc4c(N[C@H]5CCC[C@@H]5O)ncnc43)[C@H](O)[C@@H]2O)on1 [Example 136, (2S,3S,4R,5R)-2-(3-ethylisoxazol-5-yl)-5-(6-{[(1S,2S)-2-hydroxycyclopentyl]amino}-9H-purin-9-yl)tetrahydrofuran-3,4-diol]
1.31 | – | CCOC(=O)N1CCC(Nc2ncnc3c2ncn3[C@@H]2O[C@H](c3cc(CC)no3)[C@@H](O)[C@H]2O)CC1 [Example 138, ethyl 4-({9-[(2R,3R,4S,5S)-5-(3-ethylisoxazol-5-yl)-3,4-dihydroxytetrahydrofuran-2-yl]-9H-purin-6-yl}amino)piperidine-1-carboxylate]
24.9 | – | CCCc1cc([C@H]2O[C@@H](n3cnc4c(Nc5ccc(Cl)cc5F)ncnc43)[C@H](O)[C@@H]2O)on1 [Example 145, (2R,3R,4S,5S)-2-[6-(4-chloro-2-fluoroanilino)-9H-purin-9-yl]-5-(3-propylisoxazol-5-yl)tetrahydrofuran-3,4-diol]
4.3 | – | O[C@@H]1[C@H](O)[C@@H](c2cc(Br)no2)O[C@H]1n1cnc2c(Nc3ccc(Cl)cc3F)ncnc21 [Example 164, (2S,3S,4R,5R)-2-(3-bromoisoxazol-5-yl)-5-[6-(4-chloro-2-fluoroanilino)-9H-purin-9-yl]tetrahydrofuran-3,4-diol]

More lines, now with the values behind:

Structure (SMILES) | Adenosine A1 receptor ECR* [1] | Adenosine A3 receptor ECR* [2]
CC(C)(C)c1nnc([C@H]2O[C@@H](n3cnc4c(NC5CCOCC5)ncnc43)[C@H](O)[C@@H]2O)o1 [Example 3, (2S,3S,4R,5R)-2-(5-tert-Butyl-[1,3,4]oxadiazol-2-yl)-5-[6-(tetrahydro-pyran-4-ylamino)-purin-9-yl]-tetrahydro-furan-3,4-diol] | 4.16 | 152
CCOC(=O)N1CCC(Nc2ncnc3c2ncn3[C@@H]2O[C@H](c3nnc(C(C)(C)C)o3)[C@@H](O)[C@H]2O)CC1 [Example 4, 4-{9-[5S-(5-tert-Butyl-[1,3,4]oxadiazol-2-yl)-3R,4S-dihydroxy-tetrahydro-furan-2R-yl]-9H-purin-6-ylamino}-piperidine-1-carboxylic acid ethyl ester] | 5.65 | 152
CC(C)c1nnc([C@H]2O[C@@H](n3cnc4c(NC5CCOCC5)ncnc43)[C@H](O)[C@@H]2O)o1 [Example 6, (2S,3S,4R,5R)-2-(5-Isopropyl-[1,3,4]oxadiazol-2-yl)-5-[6-(tetrahydro-pyran-4-ylamino)-purin-9-yl]-tetrahydro-furan-3,4-diol] | 1.71 | 134
CCOC(=O)N1CCC(Nc2ncnc3c2ncn3[C@@H]2O[C@H](c3nnc(C4CC4)o3)[C@@H](O)[C@H]2O)CC1 [Example 12, 4-{9-[5S-(5-Cyclopropyl-[1,3,4]oxadiazol-2-yl)-3R,4S-dihydroxy-tetrahydro-furan-2R-yl]-9H-purin-6-ylamino}-piperidine-1-carboxylic acid ethyl ester] | 2.28 | 254
CCc1cnc([C@H]2O[C@@H](n3cnc4c(NC5CCOCC5)ncnc43)[C@H](O)[C@@H]2O)o1 [Example 16, (2S,3S,4R,5R)-2-(5-Ethyl-oxazol-2-yl)-5-[6-(tetrahydro-pyran-4-ylamino)-purin-9-yl]-tetrahydro-furan-3,4-diol] | 9.6 | 201
O[C@@H]1[C@H](O)[C@@H](c2nc(C3CC3)no2)O[C@H]1n1cnc2c(N[C@H]3CCC[C@@H]3O)ncnc21 [Example 19, (2S,3S,4R,5R)-2-(3-Cyclopropyl-[1,2,4]oxadiazol-5-yl)-5-[6-(2S-hydroxy-cyclopent-(S)-ylamino)-purin-9-yl]-tetrahydro-furan-3,4-diol] | 5.15 | 172
O[C@@H]1[C@H](O)[C@@H](c2nc(C3CC3)no2)O[C@H]1n1cnc2c(NC3CCOCC3)ncnc21 [Example 22, (2S,3S,4 R,5R)-2-(3-Cyclopropyl-[1,2,4]oxadiazol-5-yl)-5-[6-(tetrahydro-pyran4-ylamino)-purin-9-yl]-tetrahydro-furan-3,4-diol] | 8.75 | 423
CCOC(=O)N1CCC(Nc2ncnc3c2ncn3[C@@H]2O[C@H](c3nc(C)no3)[C@@H](O)[C@H]2O)CC1 [Example 37, ethyl 4-({9-[(2R,3R,4S,5S)-3,4-dihydroxy-5-(3-methyl-1,2,4-oxadiazol-5-yl)tetrahydrofuran-2-yl]-9H-purin-6-yl}amino)piperidine-1-carboxylate] | 4.19 | 507
Cc1cccc(NS(=O)(=O)CCNc2ncnc3c2ncn3[C@@H]2O[C@H](c3nnc(C(C)(C)C)o3)[C@@H](O)[C@H]2O)c1 [Example 126, 2-[(9-{(2R,3R,4S,5S)-5-[5-(tert-butyl)-1,3,4-oxadiazol-2-yl]-3,4-dihydroxytetrahydrofuran-2-yl}-9H-purin-6-yl)amino]-N-(3-methylphenyl)ethanesulfonamide] | 13.9 | –
Cc1cc([C@H]2O[C@@H](n3cnc4c(Nc5ccc(Cl)cc5F)ncnc43)[C@H](O)[C@@H]2O)on1 [Example 144, (2R,3R,4S,5S)-2-[6-(4-chloro-2-fluoroanilino)-9H-purin-9-yl]-5-(3-methylisoxazol-5-yl)tetrahydrofuran-3,4-diol] | 2.8 | –
O[C@@H]1[C@H](O)[C@@H](c2nnc(C(F)(F)F)o2)O[C@H]1n1cnc2c(N[C@H]3CCC[C@@H]3O)ncnc21 [Example 179, (2R,3R,4S,5S)-2-(6-{[(1S,2S)-2-hydroxy-cyclopentyl]-amino}-9H-purin-9-yl)-5-[5-(trifluoromethyl)-1,3,4-oxadiazol-2-yl]-tetrahydrofuran-3,4-diol] | 12.6 | –
Cc1nnc([C@H]2O[C@@H](n3cnc4c(Nc5ccc(Cl)cc5F)ncnc43)[C@H](O)[C@@H]2O)o1 [Example 181] | 8.57 | –
O[C@@H]1[C@H](O)[C@@H](c2cc(C3CC3)no2)O[C@H]1n1cnc2c(Nc3ccc(Cl)cc3F)ncnc21 [Example 182, (2R,3R,4S,5S)-2-[6-(4-chloro-2-fluoroanilino)-9H-purin-9-yl]-5-(3-cyclopropyl-isoxazol-5-yl)-tetrahydrofuran-3,4-diol] | 3.48 | –
